Reference: US20170044232A1, “MUTANT SMOOTHENED AND METHODS OF USING THE SAME” (GENENTECH, INC., priority 2014, published 2017)
Entries after “also recorded” stand apart in the source; their conditions may differ.

Columns and labels:
[1] = system: PPT CGNPs expressing vismodegib-resistant SMO mutants; experiment: PPT CGNP proliferation, methyl-[3H]-thymidine incorporation; type: cell-based, mice; conditions: 1 μM JQ1 (FIG. 16B)
Source text: (§1) It has previously been noted that Hh-driven tumor cells rapidly lose their Hh pathway dependence during culturing (Sasai et al., 2006). However, CGNPs proliferate in vivo in a Hh dependent manner and maintain their Hh pathway dependence in culture for a finite period (Wechsler-Reya and Scott, 1999). CGNPs isolated from Ptch1loxp/loxp Tp53loxp/loxp Rosa26LSL-tdTomato (PPT) pups were infected with lentiviral constructs expressing a SMO variant together with an enhanced green fluorescent protein (eGFP)-Cre fusion protein (FIG. 12C). The Cre recombinase induces loss of Ptch1 and thus ensures that only transduced CGNPs can proliferate in the absence of exogenous Sonic hedgehog ligand (SHH; FIG. 11D). […] Proliferation by methyl-[3H]-thymidine incorporation was monitored, while Cre-dependent tandem dimer (td) Tomato expression enabled visualization and quantification of infected cells.
(§2) SMO mutants were generated in pRK5-SMO vectors as described (Dijkgraaf et al., 2011; Yauch et al., 2009) and were either utilized in Gli-luciferase reporter assays as described (Dijkgraaf et al., 2011) or cloned into lentiviral vectors for transduction of primary CGNP cultures. Proliferation was assayed using methyl-[3H]-thymidine incorporation (Kool et al., 2014).
(§3) Cerebella from post-natal day 5-7 Ptch1^loxp/loxp Rosa26^LSL.tdTomato Tp53^loxp/loxp mice were dissociated in 0.05% Trypsin for 10 min at 37° C. Cells were collected by centrifugation at 514×g for 10 min at 4° C., resuspended in CGNP media (Neurobasal medium (Life Technologies) containing 1×B27 (without vitamin A; Life Technologies), 0.45% glucose (Sigma Aldrich), 25 mM KCl, 0.4% bovine serum albumin (Sigma Aldrich), 2 mM glutamine, 100 U/ml Penicillin (Life Technologies), 100 μg/ml Streptomycin (Life Technologies), 200 ng/ml octylated recombinant SHH) and filtered through a 0.45 μm filter (Falcon). Cells were plated in poly-D-lysine coated 6-well plates (Corning) at 5×10E5 cells/well and infected with lentivirus at a multiplicity of infection (MOI) of 1. After 24 hr, cells were harvested by trypsinization, collected in CGNP media and replated for downstream applications.
(§4) To examine the effects of HPIs on proliferation, virally transduced CGNPs were plated in poly-D-lysine-coated 96-well plates (Corning) at 25,000 cells/well in CGNP media without SHH. […] After 24 hr, cells were pulsed with 1 μCi/ml methyl-[^3H]-thymidine (Amersham/GE Healthcare) and cultured for an additional 16-24 hr. Cells were harvested onto 96-well filter plates (Perkin Elmer) using a Filtermate Cell Harvester (Perkin Elmer), and incorporated radioactivity was quantified by liquid scintillation spectrophotometry on a TopCount NXT (PerkinElmer).

SMO-A459V = target: T1, SMO-A459V (Homo sapiens, UniProt Q99835, A459V); experiment: Gli-luciferase based Hh reporter assay; type: cell-based; conditions: C3H10T½ cells
T1 construct: expressed in transfected cells; host or cells: C3H10T1/2 cells
T1 sequence (Q99835 28-787 A459V): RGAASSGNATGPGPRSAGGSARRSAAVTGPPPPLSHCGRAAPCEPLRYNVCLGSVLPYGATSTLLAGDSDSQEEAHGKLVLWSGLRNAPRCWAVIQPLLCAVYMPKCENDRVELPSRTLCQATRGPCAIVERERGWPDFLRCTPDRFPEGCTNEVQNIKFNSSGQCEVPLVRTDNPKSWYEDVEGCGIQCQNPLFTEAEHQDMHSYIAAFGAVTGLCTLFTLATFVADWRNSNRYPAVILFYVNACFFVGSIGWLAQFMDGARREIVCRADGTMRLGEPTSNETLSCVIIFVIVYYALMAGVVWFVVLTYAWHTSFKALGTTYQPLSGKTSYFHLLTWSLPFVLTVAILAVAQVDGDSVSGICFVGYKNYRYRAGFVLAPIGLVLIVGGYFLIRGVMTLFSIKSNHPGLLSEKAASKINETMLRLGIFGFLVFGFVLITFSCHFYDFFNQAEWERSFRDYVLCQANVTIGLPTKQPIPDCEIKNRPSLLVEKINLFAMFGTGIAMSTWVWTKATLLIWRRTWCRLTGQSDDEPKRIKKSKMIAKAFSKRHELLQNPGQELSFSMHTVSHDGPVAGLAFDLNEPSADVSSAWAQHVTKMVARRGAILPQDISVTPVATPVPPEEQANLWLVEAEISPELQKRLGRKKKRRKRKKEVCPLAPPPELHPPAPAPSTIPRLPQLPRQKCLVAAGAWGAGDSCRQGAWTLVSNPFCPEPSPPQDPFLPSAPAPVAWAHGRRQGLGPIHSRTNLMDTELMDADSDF
Method: as §2
C3H10T½ cells (ATCC) were seeded into six-well plates at 1.75×10E5 cells/well in DMEM High Glucose with 4 mM glutamine, 10 mM Hepes pH 7.2 and 10% FBS. After 16 h cells were transfected with 400 ng of expression construct, 400 ng of 9×-Gli-BS and 200 ng of pRL-TK per well using GeneJuice Transfection Reagent (Novagen). For the PTCH1 inhibition experiments, cells were transfected with 200 ng SMO expression construct and an additional 200 ng of DNA containing varying ratios of PTCH1 to empty vector. Six hours later, cells from one well were trypsinized and redistributed over four wells of a 12-well plate. After 16 hours the FBS content of the culture medium was reduced to 0.5% to induce formation of primary cilia, and small molecule Hh inhibitors were added at indicated concentrations. Firefly luciferase activity was determined 24 hours later with the Dual-Glo Luciferase Assay System (Promega) and read using a Wallac EnVision plate reader (Perkin Elmer). […]

[2] = system: PPT CGNPs infected with SMO DBP mutants; experiment: PPT CGNP proliferation, methyl-[3H]-thymidine incorporation; type: cell-based, mice; conditions: all DBP mutations; >1 μM vismodegib (FIG. 12D)
Source text: as §1, §2, §3, §4

[3] = system: SMO-A459V expressing CGNPs; experiment: as above; type: cell-based, mice; conditions: SMO-A459V (FIG. 15D)
Source text: as §1, §2, §3, §4

[4] = system: SMOW535L expressing CGNPs; experiment: as above; type: cell-based, mice; conditions: SMOW535L (FIG. 15D)
Source text: as §1, §2, §3, §4

SMO L515A = SMO L515A (Homo sapiens, UniProt Q99835, L515A); conditions: 1 mM vismodegib; cited from earlier work
Sequence of SMO L515A (Q99835 28-787 L515A): as the sequence (Q99835 28-787 A459V) above, with V432A, L488A counted along it

SMO E518K = SMO E518K (Homo sapiens, UniProt Q99835, E518K); conditions: cited from earlier work
Sequence of SMO E518K (Q99835 28-787 E518K): as the sequence (Q99835 28-787 A459V) above, with V432A, E491K counted along it

SMO E518A = SMO E518A (Homo sapiens, UniProt Q99835, E518A); conditions: cited from earlier work
Sequence of SMO E518A (Q99835 28-787 E518A): as the sequence (Q99835 28-787 A459V) above, with V432A, E491A counted along it

advanced BCC = conditions: majority of patients; complete and partial responses (Sekulic et al., 2012); cited from earlier work

## Cc1sc2c(c1C)C(c1ccc(Cl)cc1)=N[C@@H](CC(=O)OC(C)(C)C)c1nnc(C)n1-2 [JQ1]
[1]
  proliferation in the presence of JQ1: reduced proliferation

## CS(=O)(=O)c1ccc(C(=O)Nc2ccc(Cl)c(-c3ccccn3)c2)c(Cl)c1 [vismodegib]
SMO-A459V
  sensitivity to inhibition by vismodegib: decreased sensitivity; also recorded: reduced sensitivity
[2]
  proliferation at high levels of vismodegib: continuing to proliferate
[3]
  proliferation at high concentrations of vismodegib: continued to proliferate
[4]
  proliferation at high concentrations of vismodegib: continued to proliferate
SMO L515A
  sensitivity to inhibition by vismodegib: activating, sensitive
SMO E518K
  sensitivity to vismodegib: reduced sensitivity to
SMO E518A
  sensitivity to vismodegib: reduced sensitivity to
Advanced BCC
  clinical outcome of BCC patients treated with vismodegib: clinical benefit
